In ChEMBL document CHEMBL5370659 (J Med Chem, 2023):
The source made the active and inactive calls. No cut-off for these calls is given here.

What was measured:
[1] = Plasma protein binding in human; assay type: ADME, cell-free; details: read-out: PPB (converted)
[2] = Plasma protein binding in rat; assay type: ADME, cell-free; details: read-out: PPB (converted)
[3] = Apparent permeability across apical to basal side in human Caco-2 cells at pH 6.5/7.4 measured at 5 uM by LC-MS/MS analysis; assay type: ADME, cell-based; details: Caco-2, pH 6.5
[4] = Apparent permeability across basal to apical side in human Caco-2 cells at pH 6.5/7.4 measured at 5 uM by LC-MS/MS analysis; assay type: ADME, cell-based; details: Caco-2, pH 6.5
[5] = Metabolic stability in rat hepatocytes assessed as intrinsic clearance; assay type: ADME, cell-based, Hepatocyte; details: read-out: CLH
[6] = Permeability across basal to apical side in MDCK-MDR1 cells at pH 6.5/7.4 measured at 5 uM by LC-MS/MS analysis; assay type: ADME, cell-based, Canis lupus familiaris; details: dog, MDCK-MDR1, pH 6.5
[7] = target: T1, Tryptophan 5-hydroxylase 1 (Homo sapiens, UniProt P17752); test: Inhibition of THP1 in human serotonergic BON cells assessed as reduced the intracellular serotonin levels incubated for 72 hrs; assay type: cell-based
T1 sequence (P17752 whole entry): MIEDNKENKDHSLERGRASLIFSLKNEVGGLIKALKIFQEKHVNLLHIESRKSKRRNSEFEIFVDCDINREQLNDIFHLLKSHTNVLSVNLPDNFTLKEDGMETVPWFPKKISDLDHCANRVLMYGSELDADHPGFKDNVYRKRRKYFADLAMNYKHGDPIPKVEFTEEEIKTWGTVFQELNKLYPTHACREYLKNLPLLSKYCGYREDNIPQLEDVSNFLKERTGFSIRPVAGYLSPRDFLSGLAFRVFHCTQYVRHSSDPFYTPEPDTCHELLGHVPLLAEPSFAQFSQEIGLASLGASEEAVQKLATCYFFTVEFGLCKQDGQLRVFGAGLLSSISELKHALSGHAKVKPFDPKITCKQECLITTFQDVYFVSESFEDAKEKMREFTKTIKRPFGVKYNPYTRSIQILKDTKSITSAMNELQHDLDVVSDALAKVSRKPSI

[8] = Cytotoxicity against human serotonergic BON cells assessed as cell viability at 300 uM incubated for 72 hrs by WST-1 assay; assay type: toxicity, cell-based
Cytochrome P450 1A2 = target: T2, Cytochrome P450 1A2 (Homo sapiens, UniProt P05177); test: Inhibition of CYP1A2 in human liver microsome using phenacetin as substrate measured upto 50 uM incubated for 10 mins followed by NADPH addition incubated for 10 mins by LC/MS/MS analysis; assay type: ADME; details: microsomes, 20 min
T2 sequence (P05177 whole entry): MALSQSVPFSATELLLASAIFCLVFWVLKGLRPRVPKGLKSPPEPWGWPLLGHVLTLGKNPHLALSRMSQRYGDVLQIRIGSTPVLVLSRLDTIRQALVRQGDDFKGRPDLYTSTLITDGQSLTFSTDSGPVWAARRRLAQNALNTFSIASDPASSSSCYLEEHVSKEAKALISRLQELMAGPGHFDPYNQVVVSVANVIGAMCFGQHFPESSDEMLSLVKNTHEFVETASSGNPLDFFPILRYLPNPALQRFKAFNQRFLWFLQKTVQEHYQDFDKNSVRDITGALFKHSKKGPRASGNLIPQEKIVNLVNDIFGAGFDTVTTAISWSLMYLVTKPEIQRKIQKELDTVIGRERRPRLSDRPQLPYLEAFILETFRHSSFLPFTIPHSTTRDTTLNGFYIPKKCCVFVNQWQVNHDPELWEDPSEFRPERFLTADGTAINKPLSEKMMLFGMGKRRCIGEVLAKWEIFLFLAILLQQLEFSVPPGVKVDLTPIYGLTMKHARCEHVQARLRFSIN

[9] = Drug uptake in CD-1 (ICR) mouse brain at 50 mg/kg measured 2 hrs by LC-MS/MS analysis; assay type: ADME, organism-based; details: read-out: Drug uptake
[10] = Clearance in Sprague-Dawley rat at 10 mg/kg, iv measured upto 1440 mins by LC-MS/MS analysis; assay type: ADME, organism-based; details: in vivo
[11] = AUC (0 to last) in Sprague-Dawley rat at 10 mg/kg, iv measured upto 1440 mins by LC-MS/MS analysis; assay type: ADME, organism-based; parameters: time < 1440 min, dose 10 mg/kg, route iv; details: in vivo
[12] = MRT (0 to last) in Sprague-Dawley rat at 10 mg/kg, iv measured upto 1440 mins by LC-MS/MS analysis; assay type: ADME, organism-based; details: in vivo
[13] = AUCExtra in Sprague-Dawley rat at 10 mg/kg, iv measured upto 1440 mins by LC-MS/MS analysis; assay type: ADME, organism-based; details: in vivo, 24 h
[14] = Tmax in Sprague-Dawley rat at 20 mg/kg, po measured upto 1440 mins by LC-MS/MS analysis; assay type: ADME, organism-based; details: in vivo
[15] = MRT (0 to infinitive) in Sprague-Dawley rat at 20 mg/kg, po measured upto 1440 mins by LC-MS/MS analysis; assay type: ADME, organism-based; details: in vivo
[16] = Oral bioavailability in Sprague-Dawley rat at 20 mg/kg measured upto 1440 mins by LC-MS/MS analysis; assay type: ADME, organism-based; details: in vivo
[17] = AUC (0 to infinitive) in Sprague-Dawley rat at 50 mg/kg, po measured upto 1440 mins by LC-MS/MS analysis; assay type: ADME, organism-based; parameters: dose 50 mg/kg, time < 1440 min, route po; details: in vivo
[18] = MRT (0 to last) in Sprague-Dawley rat at 50 mg/kg, po measured upto 1440 mins by LC-MS/MS analysis; assay type: ADME, organism-based; details: in vivo
[19] = AUCExtra in Sprague-Dawley rat at 50 mg/kg, po measured upto 1440 mins by LC-MS/MS analysis; assay type: ADME, organism-based; details: in vivo, 24 h
[20] = AUMCExtra in Sprague-Dawley rat at 50 mg/kg, po measured upto 1440 mins by LC-MS/MS analysis; assay type: ADME, organism-based; details: in vivo, 24 h
[21] = Drug uptake in Sprague-Dawley rat brain at 50 mg/kg, po measured at 0.5 hrs by LC-MS/MS analysis; assay type: ADME, organism-based; details: read-out: Drug uptake
[22] = Drug uptake in Sprague-Dawley rat lung at 20 mg/kg, po measured at 2 hrs by LC-MS/MS analysis; assay type: ADME, organism-based; details: read-out: Drug uptake
[23] = Drug uptake in Sprague-Dawley rat brain at 20 mg/kg, po measured at 2 hrs by LC-MS/MS analysis; assay type: ADME, organism-based; details: in vivo, BLD = below limit of detection
[24] = Reduction in serotonin level in C57BL/6N mouse duodenum at 15 mg/kg, po bid treated for 7 days by HPLC analysis relative to control; assay type: functional; details: 168 h, time 7 day
Mus musculus [25] = test: Effect on C57BL/6N mouse assessed as brain serotonin turnover measuring 5-HIAA/5-HT ratio at 1.5 to 50 mg/kg, po bid treated for 6 to 7 days; assay type: functional, organism-based; details: dose 1.5-50 mg/kg, time 6-7 day
Mus musculus [26] = test: Effect on hedonic component behavior in C57BL/6N mouse at 10 mg/kg, po treated for 14 days by sucrose preference test; assay type: functional, organism-based; details: time 14.0 day
MC-38 = test: Antitumor activity against mouse MC-38 cells subcutaneously transplanted in C57BL/6N mouse assessed as reduction in absolute tumor volume at 50 mg/kg, po bid measured on day 20 relative to control; assay type: functional; details: MC-38, 480 h, route sc, time 20 day
[27] = Tlast in Sprague-Dawley rat at 20 mg/kg, po measured upto 1440 mins by LC-MS/MS analysis; assay type: ADME, organism-based; details: in vivo, 24 h

fraction unbound [1]: 0.49
fraction unbound [2]: 0.52
Papp A→B at 5 µM [3]: 0.14 ×10⁻⁶ cm/s
Papp B→A at 5 µM [4]: 23 ×10⁻⁶ cm/s
CLint scaled [5]: < 17 mL/min/kg
Papp B→A at 5 µM [6]: 15 ×10⁻⁶ cm/s
IC50 [7]: 952 nM
inhibition (INH) (Cytochrome P450 1A2): Not Active
concentration at 2 h [9]: 46 ng/g
clearance [10]: 33.2 mL/min/kg
AUC(0-t) at 24 h [11]: 5000 ng·h/mL
MRT last at 24 h [12]: 0.61 h
%AUCextra [13]: 0.46%
Tmax [14]: 0.42 h
MRT inf [15]: 3.14 h
bioavailability [16]: 33%
AUC(0-inf) [17]: 8220 ng·h/mL
MRT last at 24 h [18]: 2.63 h
%AUCextra [19]: 0.44%
AUMC [20]: 4.6%
concentration at 0.5 h [21]: 43 ng/g
concentration at 2 h [22]: 76 ng/g
Drug uptake [23]: Bld
Tlast [27]: 24 h
SMILES: CCn1c(=O)[nH]c(=O)c2c1nc(Cc1cn3cc(C)sc3n1)n2CC1COC1
Activity [8]: Non-Toxic
inhibition in vivo at 15 mg/kg [24]: 50%
Activity (Mus musculus [25]): inactive
Activity (Mus musculus [26]): inactive
inhibition in vivo at 50 mg/kg (MC-38): 35%
